Key:
Type in all cases: in vivo
[1] = system: Spodoptera littoralis; test: Spodoptera littoralis (Egyptian cotton leafworm) leaf disc test; conditions: foliar, 72 h, application rate 200 ppm, cotton leaf discs, L1 larvae, mortality, feeding behavior, growth regulation 3 DAT
Source text: Spodoptera littoralis (Egyptian Cotton Leafworm): Cotton leaf discs were placed on agar in a 24-well microtiter plate and sprayed with test solutions at an application rate of 200 ppm. After drying, the leaf discs were infested with 5 L1 larvae. The samples were checked for mortality, feeding behavior, and growth regulation 3 days after treatment (DAT).

[2] = system: Heliothis virescens; test: Heliothis virescens (tobacco budworm) egg/larval test on artificial diet; conditions: 96 h, application rate 200 ppm (concentration in well 18 ppm), eggs on artificial diet, 4 days
Protocol: Eggs (0-24 h old) were placed in 24-well microtiter plate on artificial diet and treated with test solutions at an application rate of 200 ppm (concentration in well 18 ppm) by pipetting. After an incubation period of 4 days, samples were checked for egg mortality, larval mortality, and growth regulation.

[3] = system: Plutella xylostella; test: Plutella xylostella (diamond back moth) larval test on artificial diet; conditions: 144 h, application rate 200 ppm (concentration in well 18 ppm), L2 larvae on artificial diet, 6 days
Protocol: (§1) 24-well microtiter plate (MTP) with artificial diet was treated with test solutions at an application rate of 200 ppm (concentration in well 18 ppm) by pipetting. After drying, the MTP's were infested with L2 larvae (7-12 per well). After an incubation period of 6 days, samples were checked for larval mortality and growth regulation.

[4] = system: Diabrotica balteata; test: Diabrotica balteata (corn root worm) larval test on artificial diet; conditions: 120 h, application rate 200 ppm (concentration in well 18 ppm), L2 larvae on artificial diet, 5 days
Protocol: as §1, with “Diabrotica balteata (Corn Root Worm): A 24-well” for “24-well”, “(6-10” for “(7-12”, “5” for “6”

[5] = system: Myzus persicae; test: Myzus persicae (green peach aphid), systemic test; conditions: 144 h, application rate 12.5 ppm, roots of pea seedlings in test solution, 6 days
Source text: Myzus persicae (Green peach aphid), systemic test: Roots of pea seedlings, infested with an aphid population of mixed ages, are placed directly in the test solutions at an application rate of 12.5 ppm. 6 days after introduction, samples are checked for mortality and special effects on the plant. The following compounds gave at least 80% control of Myzus persicae: […]

[6] = system: Thrips tabaci; test: Thrips tabaci (onion thrips) leaf disc test; conditions: foliar, 168 h, application rate 200 ppm, sunflower leaf discs, 7 days
Protocol: Sunflower leaf discs were placed on agar in a 24-well microtiter plate and sprayed with test solutions at an application rate of 200 ppm. After drying, the leaf discs were infested with a thrips population of mixed ages. After an incubation period of 7 days, samples were checked for mortality.

[7] = system: Tetranychus urticae; test: Tetranychus urticae (two-spotted spider mite) leaf disc test; conditions: foliar, 192 h, application rate 200 ppm, bean leaf discs, 8 days
Source text: Bean leaf discs on agar in 24-well microtiter plates were sprayed with test solutions at an application rate of 200 ppm. After drying, the leaf discs are infested with mite populations of mixed ages. 8 days later, discs are checked for egg mortality, larval mortality, and adult mortality.

O=C(CSc1ccc(C2=NOC(c3cc(Cl)cc(Cl)c3)(C(F)(F)F)C2)cc1Cl)NCC(F)(F)F (centres unmarked) [Compound A5, 2-{2-Chloro-4-[5-(3,5-Dichloro-phenyl)-5-trifluoromethyl-4,5-dihydro-isoxazol-3-yl]-phenylsulfanyl}-N-(2,2,2-trifluoro-ethyl)-acetamide]
≥ 80%: pest or weed control at 200 ppm [1] | pest or weed control at 200 ppm [2] | pest or weed control at 200 ppm [3] | pest or weed control at 200 ppm [4] | pest or weed control at 12.5 ppm [5] | pest or weed control at 200 ppm [6] | pest or weed control at 200 ppm [7]

O=C(CSc1ccc(C2=NOC(c3cc(Cl)cc(Cl)c3)(C(F)(F)F)C2)cc1Br)NCC(F)(F)F (centres unmarked) [Compound A29, 2-{2-bromo-4-[5-(3,5-dichloro-phenyl)-5-trifluoromethyl-4,5-dihydro-isoxazol-3-yl]-phenylsulfanyl}-N-(2,2,2-trifluoro-ethyl)-acetamide]
≥ 80%: pest or weed control at 200 ppm [1] | pest or weed control at 200 ppm [2] | pest or weed control at 200 ppm [3] | pest or weed control at 200 ppm [4] | pest or weed control at 12.5 ppm [5] | pest or weed control at 200 ppm [6] | pest or weed control at 200 ppm [7]

O=C(C[S+]([O-])c1ccc(C2=NOC(c3cc(Cl)cc(Cl)c3)(C(F)(F)F)C2)cc1Br)NCC(F)(F)F (centres unmarked) [Compound A52, 2-{2-Bromo-4-[5-(3,5-dichloro-phenyl)-5-trifluoromethyl-4,5-dihydro-isoxazol-3-yl]-benzenesulfinyl}-N-(2,2,2-trifluoro-ethyl)-acetamide]
≥ 80%: pest or weed control at 200 ppm [1] | pest or weed control at 200 ppm [2] | pest or weed control at 200 ppm [3] | pest or weed control at 200 ppm [4] | pest or weed control at 12.5 ppm [5] | pest or weed control at 200 ppm [6] | pest or weed control at 200 ppm [7]

O=C(CS(=O)(=O)c1ccc(C2=NOC(c3cc(Cl)cc(Cl)c3)(C(F)(F)F)C2)cc1Br)NCC(F)(F)F (centres unmarked) [Compound A53, 2-{2-Bromo-4-[5-(3,5-dichloro-phenyl)-5-trifluoromethyl-4,5-dihydro-isoxazol-3-yl]-benzenesulfonyl}-N-(2,2,2-trifluoro-ethyl)-acetamide]
≥ 80%: pest or weed control at 200 ppm [1] | pest or weed control at 200 ppm [2] | pest or weed control at 200 ppm [3] | pest or weed control at 200 ppm [4] | pest or weed control at 12.5 ppm [5] | pest or weed control at 200 ppm [6] | pest or weed control at 200 ppm [7]

N#CC1(NC(=O)C[S+]([O-])c2ccc(C3=NOC(c4cc(Cl)cc(Cl)c4)(C(F)(F)F)C3)cc2Cl)CC1 (centres unmarked) [Compound A56, 2-[2-chloro-4-[5-(3,5-dichlorophenyl)-5-(trifluoromethyl)-4H-isoxazol-3-yl]phenyl]sulfinyl-N-(1-cyanocyclopropyl)acetamide]
≥ 80%: pest or weed control at 200 ppm [1] | pest or weed control at 200 ppm [2] | pest or weed control at 200 ppm [3] | pest or weed control at 200 ppm [4] | pest or weed control at 12.5 ppm [5] | pest or weed control at 200 ppm [6] | pest or weed control at 200 ppm [7]

N#CC1(NC(=O)CSc2ccc(C3=NOC(c4cc(Cl)cc(Cl)c4)(C(F)(F)F)C3)cc2Cl)CC1 (centres unmarked) [Compound A60, 2-[2-chloro-4-[5-(3,5-dichlorophenyl)-5-(trifluoromethyl)-4H-isoxazol-3-yl]phenyl]sulfanyl-N-(1-cyanocyclopropyl)acetamide]
≥ 80%: pest or weed control at 200 ppm [1] | pest or weed control at 200 ppm [2] | pest or weed control at 200 ppm [3] | pest or weed control at 200 ppm [4] | pest or weed control at 12.5 ppm [5] | pest or weed control at 200 ppm [6] | pest or weed control at 200 ppm [7]

N#CC1(NC(=O)CS(=O)(=O)c2ccc(C3=NOC(c4cc(Cl)cc(Cl)c4)(C(F)(F)F)C3)cc2Cl)CC1 (centres unmarked) [Compound A61, 2-[2-chloro-4-[5-(3,5-dichlorophenyl)-5-(trifluoromethyl)-4H-isoxazol-3-yl]phenyl]sulfonyl-N-(1-cyanocyclopropyl)acetamide]
≥ 80%: pest or weed control at 200 ppm [1] | pest or weed control at 200 ppm [2] | pest or weed control at 200 ppm [3] | pest or weed control at 200 ppm [4] | pest or weed control at 200 ppm [6] | pest or weed control at 200 ppm [7]

O=C(CSc1ccc(C2=NCC(c3cc(Cl)cc(Cl)c3)(C(F)(F)F)C2)cc1Cl)NCC(F)(F)F (centres unmarked) [Compound B1, 2-{2-Chloro-4-[4-(3,5-dichloro-phenyl)-4-trifluoromethyl-4,5-dihydro-3H-pyrrol-2-yl]-phenylsulfanyl}-N-(2,2,2-trifluoro-ethyl)-acetamide]
≥ 80%: pest or weed control at 200 ppm [1] | pest or weed control at 200 ppm [2] | pest or weed control at 200 ppm [3] | pest or weed control at 200 ppm [4] | pest or weed control at 12.5 ppm [5] | pest or weed control at 200 ppm [6] | pest or weed control at 200 ppm [7]

O=C(C[S+]([O-])c1ccc(C2=NCC(c3cc(Cl)cc(Cl)c3)(C(F)(F)F)C2)cc1Cl)NCC(F)(F)F (centres unmarked) [Compound B2, 2-{2-Chloro-4-[4-(3,5-dichloro-phenyl)-4-trifluoromethyl-4,5-dihydro-3H-pyrrol-2-yl]-benzenesulfinyl}-N-(2,2,2-trifluoro-ethyl)-acetamide]
≥ 80%: pest or weed control at 200 ppm [1] | pest or weed control at 200 ppm [2] | pest or weed control at 200 ppm [3] | pest or weed control at 200 ppm [4] | pest or weed control at 12.5 ppm [5] | pest or weed control at 200 ppm [6] | pest or weed control at 200 ppm [7]

O=C(CS(=O)(=O)c1ccc(C2=NCC(c3cc(Cl)cc(Cl)c3)(C(F)(F)F)C2)cc1Cl)NCC(F)(F)F (centres unmarked) [Compound B3, 2-{2-chloro-4-[4-(3,5-Dichloro-phenyl)-4-trifluoromethyl-4,5-dihydro-3H-pyrrol-2-yl]-benzenesulfonyl}-N-(2,2,2-trifluoro-ethyl)-acetamide]
≥ 80%: pest or weed control at 200 ppm [1] | pest or weed control at 200 ppm [2] | pest or weed control at 200 ppm [3] | pest or weed control at 200 ppm [4] | pest or weed control at 12.5 ppm [5] | pest or weed control at 200 ppm [6] | pest or weed control at 200 ppm [7]

Cc1cc(C2=NO[C@@](c3cc(Cl)cc(Cl)c3)(C(F)(F)F)C2)ccc1SCC(=O)NCC(F)(F)F [Compound C4, 2-{4-[(S)-5-(3,5-Dichloro-phenyl)-5-trifluoromethyl-4,5-dihydro-isoxazol-3-yl]-2-methyl-phenylsulfanyl}-N-(2,2,2-trifluoro-ethyl)-acetamide]
≥ 80%: pest or weed control at 200 ppm [1] | pest or weed control at 200 ppm [4]

O=C(C[S+]([O-])c1ccc(C2=NO[C@@](c3cc(Cl)c(Cl)c(Cl)c3)(C(F)(F)F)C2)cc1Cl)NC1CC1 (stereo partly drawn) [Compound D5, 2-[2-chloro-4-[(5S)-5-(3,4,5-trichlorophenyl)-5-(trifluoromethyl)-4H-isoxazol-3-yl]phenyl]sulfinyl-N-cyclopropyl-acetamide]
≥ 80%: pest or weed control at 12.5 ppm [5]

O=C(CS(=O)(=O)c1ccc(C2=NO[C@@](c3cc(Cl)c(Cl)c(Cl)c3)(C(F)(F)F)C2)cc1Cl)NC1CC1 [Compound D6, 2-[2-chloro-4-[(5S)-5-(3,4,5-trichlorophenyl)-5-(trifluoromethyl)-4H-isoxazol-3-yl]phenyl]sulfonyl-N-cyclopropyl-acetamide]
≥ 80%: pest or weed control at 12.5 ppm [5]

Cc1cc(C2=NOC(c3cc(Cl)cc(Cl)c3)(C(F)(F)F)C2)cnc1SCC(=O)NC1CC1 (centres unmarked) [Compound F1, N-cyclopropyl-2-[[5-[5-(3,5-dichlorophenyl)-5-(trifluoromethyl)-4H-isoxazol-3-yl]-3-methyl-2-pyridyl]sulfanyl]acetamide]
≥ 80%: pest or weed control at 200 ppm [1] | pest or weed control at 200 ppm [2] | pest or weed control at 200 ppm [3] | pest or weed control at 200 ppm [4] | pest or weed control at 200 ppm [7]

Cc1cc(C2=NOC(c3cc(Cl)cc(Cl)c3)(C(F)(F)F)C2)ncc1SCC(=O)NC1CC1 (centres unmarked) [Compound F2, N-cyclopropyl-2-[[6-[5-(3,5-dichlorophenyl)-5-(trifluoromethyl)-4H-isoxazol-3-yl]-4-methyl-3-pyridyl]sulfanyl]acetamide]
≥ 80%: pest or weed control at 200 ppm [1] | pest or weed control at 200 ppm [2] | pest or weed control at 200 ppm [3] | pest or weed control at 200 ppm [4] | pest or weed control at 12.5 ppm [5]

Source: US8895587B2, “Insecticidal compounds based on arylthioacetamide derivatives” (Syngenta Participations AG, priority 2011, dated 2014)
